Laboratory results published in US20100311756A1, “METHODS FOR DELAYING THE PROGRESSION OF AT LEAST ONE OF CARDIAC HYPERTROPHY, CARDIAC REMODELING OR LEFT VENTRICULAR FUNCTION OR THE ONSET OF HEART FAILURE IN SUBJECTS IN NEED OF TREATMENT THEREOF” (TAKEDA PHARMACEUTICALS NORTH AMERICA, INC., priority 2009, published 2010).

Experiments:
[1] = system: enzymes involved in purine and pyrimidine metabolism; details: Takano et al., Life Sciences 2005; cited from earlier work
[2] = Schumacher, Expert Opin. Invest. Drugs 2005; cited from earlier work
[3] = system: post-myocardial infarction rabbits; test: Chronic xanthine oxidase inhibition following myocardial infarction (permanent coronary artery ligation) in rabbits; assay type: in vivo; details: for Heart Weight / Heart/Body Weight Ratio: Day 49; for EDV / EF (ejection fraction) / LVIDd / LVIDs / LVPWd / LVPWs / SF (shortening fraction): baseline (Day 0, pre-surgery, before dosing); for Ejection fraction (percent change from baseline) versus vehicle/control / Shortening fraction (percent change from baseline) versus vehicle/control: delayed treatment (from Day 22)
Source text: • Animals Male New Zealand white rabbits (1-2 kg; Clerco Research Farms, Cincinnati, Ohio, USA) were housed in separate cages in an environmentally controlled facility. The animals were subjected to circadian light-dark cycles, maintained on standard rabbit chow (2030C, Harlan Teklad, Madison, Wis., USA) and provided water ad libitum.
The procedures used in this study were reviewed and approved by the Institutional Animal Care and Use Committee (IACUC) of QTest Labs for compliance with regulations and current accepted practices. All applicable sections of the Final Rules of the Animal Welfare Act regulations (Section 9 CFR) and the Public Health Service Policy on Humane Care and Use of Laboratory Animals (OPRR, NIH, 1986) were followed. At the end of the study, all animals were humanely euthanized in accordance with accepted guidelines of the American Veterinary Medical Association (See, American Veterinary Medicine Association (AVMA), 2000 Report of the AVMA Panel on Euthanasia, The Journal of the American Veterinary Medical Association, 218(5):669-696 (2001)). • Drugs Febuxostat and allopurinol (Sigma-Aldrich, St. Louis, Mo., USA) were each formulated as a suspension in 0.5% methylcellulose (Sigma-Aldrich, St. Louis, Mo.) as the vehicle. […] Allopurinol was given orally at 60 mg/kg. […] The rabbits were anesthetized with an intramuscular injection of ketamine (35 mg/kg)/xylazine (5 mg/kg) and pre-surgery enrofloxacin (12 mg/kg). Isoflurane (1-2%) was given during the surgery as required to maintain a deep level of anesthesia and the animals were allowed to breathe 100% oxygen. A limb lead electrocardiogram (ECG) was obtained to monitor sinus rhythm, heart rate, and J-point deviation. The rabbit was placed in dorsal recumbency, and the sternum was exposed by blunt dissection and then incised with scissors. […] Myocardial ischemia was confirmed by regional cyanosis of the myocardial surface and ST-segment elevation on the ECG. The sternum was closed, leaving the pericardial sac as it was. The muscle layers, subcutaneous layer and skin were then closed. Ketofen (1 mg/kg) and buprenorphine (0.03 mg/kg/8 hour) were administered subcutaneously, and the rabbits were placed on a heating pad, covered with a towel, and observed continuously until awake. Post-operative medications given subcutaneously to the rabbits included enrofloxacin (12 mg/kg, b.i.d.), ketofen (0.03 mg/kg, b.i.d.), and buprenorphine ([…], t.i.d. to q.i.d.) for 1 to 3 days as needed. • Experimental Procedures Rabbits were surgically altered (Day 0) to produce MI-induced heart failure and assigned to one of four treatment groups: the vehicle/control group (n=8) received vehicle for 49 consecutive days (7 weeks), the febuxostat/early treatment group (n=8) received febuxostat (10 mg/kg) for 49 consecutive days (7 weeks), the febuxostat/delayed treatment group (n=7) received vehicle for 21 consecutive days (3 weeks) and then febuxostat (10 mg/kg) starting on Day 22 (3 weeks post-surgery) for 28 consecutive days (4 weeks), and the allopurinol/delayed treatment group (n=8) received vehicle for 21 consecutive days and then allopurinol (60 mg/kg) starting on Day 22 (3 weeks post-surgery) for 28 consecutive days (4 weeks). All treatments were started on Day 1 (i.e. the day after surgery) and administered by oral gavage (2 mL/kg). The animals were fasted overnight prior to each day of dosing.
On Day 0 (baseline, pre-surgery), and on Days 21 (end of week 3) and 49 (end of week 7) at approximately one hour after dosing, the rabbits were sling restrained for ECG acquisition.

[4] = delayed treatment: vehicle 21 days then oral FBS 10 mg/kg/day or AL 60 mg/kg/day for 28 days
[5] = early treatment: FBS 10 mg/kg/day oral for 49 days from 1 day after coronary occlusion
[6] = early treatment from one day after ligation, Day 21, still apparent on Day 49

| Compound | Cross-inhibition on other purine and pyrimidine metabolism enzymes such as purine nucleoside phosphorylase and orotidine-5′-monophosphate decarboxylase [1] | Route of elimination [2] | Heart Weight [3, 4] [g] | Heart/Body Weight Ratio [3, 4] [%] | EDV ([3]; delayed treatment group) [mL] | EF (ejection fraction) ([3]; delayed treatment group) [%] | LVIDd ([3]; delayed treatment group) [cm] | LVIDs ([3]; delayed treatment group) [cm] | LVPWd ([3]; delayed treatment group) [cm] | LVPWs ([3]; delayed treatment group) [cm] | SF (shortening fraction) ([3]; delayed treatment group) [%] | Ejection fraction (percent change from baseline) versus vehicle/control ([3]; Days 21 and 49) | Shortening fraction (percent change from baseline) versus vehicle/control ([3]; Days 21 and 49) | further results |
| --- | --- | --- | --- | --- | --- | --- | --- | --- | --- | --- | --- | --- | --- | --- |
| Cc1nc(-c2ccc(OCC(C)C)c(C#N)c2)sc1C(=O)O [febuxostat, 2-[3-cyano-4-(2-methylpropoxy)phenyl]-4-methylthiazole-5-carboxylic acid] | avoids the cross-inhibition | hepatic metabolism | 6.65 ± 0.27 | 0.28 ± 0.01 | 1.42 ± 0.13 | 71 ± 1.7 | 1.11 ± 0.04 | 0.70 ± 0.02 | 0.32 ± 0.02 | 0.44 ± 0.02 | 36 ± 1.2 | not significantly different | not significantly different | Heart Weight [3, 5]: small trend toward a lower; Heart/Body Weight Ratio [3, 5]: 0.25 ± 0.01%; Heart Weight ([3]; early treatment: FBS 10 mg/kg/day oral for 49 days from 1 day after coronary occlusion, listed as FBS): 6.38 ± 0.19 g; EDV ([3]; early treatment group): 1.94 ± 0.25 mL; EF (ejection fraction) ([3]; early treatment group): 68 ± 1.8 %; LVIDd ([3]; early treatment group): 1.25 ± 0.04 cm; LVIDs ([3]; early treatment group): 0.82 ± 0.03 cm; LVPWd ([3]; early treatment group): 0.26 ± 0.02 cm; LVPWs ([3]; early treatment group): 0.49 ± 0.02 cm; SF (shortening fraction) ([3]; early treatment group): 34 ± 1.4 %; Reduction of ejection fraction (percent change from baseline) versus vehicle/control [3, 6]: significantly lessened; Reduction of shortening fraction (percent change from baseline) versus vehicle/control [3, 6]: significantly lessened; Increase in LVIDd versus vehicle/control ([3]; early treatment, Day 21): less of an increase; Increase in end diastolic volume versus vehicle/control ([3]; early treatment, Day 21): less of an increase; Increase in LVIDs versus vehicle/control ([3]; early treatment, Day 21, reaching statistical significance): less of an increase; Left ventricular posterior wall dimension during diastole, change from baseline ([3]; early treatment, Days 21 and 49): no reduction |
| Oc1ncnc2[nH]ncc12 [allopurinol] | cross-inhibition | mainly cleared by the kidneys | 6.59 ± 0.30 | 0.24 ± 0.01 | 2.21 ± 0.21 | 74 ± 1.9 | 1.29 ± 0.05 | 0.77 ± 0.03 | 0.31 ± 0.02 | 0.46 ± 0.02 | 40 ± 1.7 | not significantly different | not significantly different |  |
